Source: PubChem BioAssay AID1508610 (The Scripps Research Institute Molecular Screening Center, 2020)
Active and inactive are the calls of the source. The rule behind the calls is not given here.

Each molecule was assayed against G-protein coupled receptor 151 (Homo sapiens) (UniProt Q8TDV0) (assay: GPR151 activator potency, dose response, cell-based (AID 1508610)). Conditions: cell-based GPR151 activation reporter.
Sequence of G-protein coupled receptor 151 (Homo sapiens) (Q8TDV0 whole entry, looked up): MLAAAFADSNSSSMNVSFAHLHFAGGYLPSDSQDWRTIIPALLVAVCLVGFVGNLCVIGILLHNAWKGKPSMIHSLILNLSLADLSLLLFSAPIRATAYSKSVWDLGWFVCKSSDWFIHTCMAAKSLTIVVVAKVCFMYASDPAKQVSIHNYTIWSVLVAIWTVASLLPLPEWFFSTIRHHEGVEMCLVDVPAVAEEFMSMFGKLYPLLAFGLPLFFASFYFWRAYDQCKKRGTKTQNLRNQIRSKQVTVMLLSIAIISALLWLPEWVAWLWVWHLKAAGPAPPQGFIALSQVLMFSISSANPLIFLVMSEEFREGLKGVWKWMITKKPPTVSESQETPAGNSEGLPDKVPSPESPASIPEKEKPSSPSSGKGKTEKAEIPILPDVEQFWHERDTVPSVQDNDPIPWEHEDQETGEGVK
`Cc1c(C(=O)NCc2ccco2)oc2ccc(S(=O)(=O)N(C)C3CCCCC3)cc12` was tested, and the EC50 was > 28 µM (inactive). In the case of `COC(=O)c1c(NC(=O)/C=C\C(=O)O)sc(C)c1C`, the EC50 is reported as > 28 µM (inactive). With `COc1ccc(C(=O)N/N=C/c2ccc(O)cc2O)cc1OC` the EC50 was > 28 µM (inactive). In the case of `CCN(CC)c1ccc(NC(=O)/C=C\C(=O)O)cc1`, the EC50 is reported as > 28 µM (inactive). In the case of `O=C(NC1CC1)c1ccc2nc(-c3csc4ccccc34)sc2c1`, the EC50 is reported as > 28.1 µM (inactive). For `O=C1NC(c2ccc(Cl)cc2Cl)Oc2ccccc21` (stereo not given), the EC50 was > 28 µM (inactive). With `CN1CCN(c2cc(-c3cn[nH]c3)ccc2NC(=O)Cc2cccc(Cl)c2)CC1` the EC50 was 1.25 µM. `O=C(Nc1nc2cc3c(cc2s1)OCO3)C1=COCCO1` was tested, and the EC50 was > 27.4 µM (inactive). `Cc1ccc(NC(=O)/C(=C/c2cccc([N+](=O)[O-])c2)NC(=O)c2cccs2)c(Br)c1` was tested, and the EC50 was > 18.7 µM (inactive). `Cc1ccc(CNC(=O)c2c(C)cc(=O)oc2C)cc1` was tested, and the EC50 was > 28 µM (inactive). In the case of `CCOC(=O)c1cnc2c(OC)cccc2c1NC1CCCCC1`, the EC50 is reported as “inactive”. For `C=CCOC(=O)CCN1C(=O)c2ccccc2C1=O`, the EC50 was > 28 µM (inactive). For `COc1cc(S(=O)(=O)N2CCN(c3ccc(C)c(C)c3)CC2)ccc1F`, the EC50 was > 28 µM (inactive). For `Cc1ccc(NC(=O)CN(C)S(=O)(=O)c2ccc(Br)cc2)cc1Cl`, the EC50 was > 28 µM (inactive). For `O=c1oc2cc(O)ccc2cc1-c1ccc(Cl)cc1`, the EC50 was > 28.8 µM (inactive). With `CCOc1cc(OCC)cc(C(=O)Nc2ccc(Br)cn2)c1` the EC50 was > 28 µM (inactive). `CCSCCOC(=O)C1=C(C)NC(=O)NC1c1ccc(OC(F)(F)F)cc1` (stereo not given) was tested, and the EC50 was > 22.5 µM (inactive). For `CC(C)NC(=O)c1cnc2scc(-c3ccccc3)n2c1=O`, the EC50 was > 28 µM (inactive). For `O=C(Nc1ccc(Br)cc1)c1ccc(Br)c(S(=O)(=O)N2CCCCC2)c1`, the EC50 was > 20.9 µM (inactive). With `Cc1sc2ncnc(N3CCN(c4ccccn4)CC3)c2c1C` the EC50 was > 32.6 µM (inactive). In the case of `O=[N+]([O-])c1ccc(NS(=O)(=O)Cc2ccccc2)c([N+](=O)[O-])c1`, the EC50 is reported as > 28 µM (inactive). In the case of `c1cncc(-c2noc(C34CC5CC(CC(C5)C3)C4)n2)c1`, the EC50 is reported as > 26.4 µM (inactive). With `Cc1sc(NC(=O)c2ccco2)c(CN2CCN(CCO)CC2)c1C` the EC50 was > 27.7 µM (inactive). `CCC(=O)Oc1ccc2cc(-c3ccc(OC)c(OC)c3)c(=O)oc2c1` was tested, and the EC50 was > 28.5 µM (inactive). In the case of `O=C(Cc1cn(-c2ccc(Cl)nn2)c2ccccc12)NCCN1CCOCC1`, the EC50 is reported as > 28.1 µM (inactive). In the case of `CCOCCCNC(=O)c1cc([N+](=O)[O-])ccc1Cl`, the EC50 is reported as > 28 µM (inactive). In the case of `COc1ccc(N2CCN(C3CC(=O)NC3=O)CC2)cc1` (stereo not given), the EC50 is reported as > 28 µM (inactive). `CCCNC(=O)c1ccc(-c2ccc(N3CCOCC3)nc2)s1` was tested, and the EC50 was > 28.1 µM (inactive). With `Cc1ccc(C(=O)Nc2ccc([N+](=O)[O-])cc2)c(Cl)c1` the EC50 was > 28 µM (inactive). With `CCOCCCNC(=O)CSc1ncccc1-c1nc2cc(C)c(C)cc2[nH]1` the EC50 was > 28 µM (inactive). `COc1ccc(C(=O)/C=C\N2CCOCC2)cc1` was tested, and the EC50 was > 28 µM (inactive). `O=C(c1ccc2c(c1)OCO2)N1CCN(c2ccc(Cl)cc2)CC1` was tested, and the EC50 was > 28 µM (inactive). For `Cc1ccc(N(CC(=O)NCCC2=CCCCC2)S(C)(=O)=O)cc1Cl`, the EC50 was > 28 µM (inactive). `CCN(CC)S(=O)(=O)c1ccc(C(=O)Nc2nnc(C(C)C)s2)cc1` was tested, and the EC50 was > 23.9 µM (inactive). With `CCN(CC)C(=O)C(=O)c1c(C)n(C)c2ccccc12` the EC50 was > 28 µM (inactive). In the case of `COc1ccc(C(=O)Nc2noc3ccccc23)cc1`, the EC50 is reported as > 28 µM (inactive). For `Cc1nn(-c2ccccc2)c(Cl)c1/C=N\O`, the EC50 was > 28 µM (inactive). With `CC(=O)Nc1ccc(NC(=O)c2ccc3nc(Nc4ccccn4)sc3c2)cc1` the EC50 was > 28 µM (inactive). In the case of `COc1ccc2o/c(=N\NC(=O)c3ccccc3Nc3ccccc3)c(C(N)=O)cc2c1`, the EC50 is reported as > 28 µM (inactive). `CC(=O)c1c(C)[nH]c(C(=O)N2CCN(c3ccccc3)CC2)c1C` was tested, and the EC50 was > 28 µM (inactive).
